Patent US11377440B2, “Modulators of stimulator of interferon genes (STING)” (GlaxoSmithKline Intellectual Property Development Limited, priority 2017, dated 2022)

System: T1, STING
T1 construct: endogenous in cells; host or cells: THP-1
Experiment: Functional assay IV (THP-1 antagonist assay), IFNβ secretion after Bacmam virus
Assay type: cell-based, human
Settings: THP-1 cells, Bacmam virus MOI of 40 pfu/cell; upper limit of the assay 9.1

CCn1nc(C)cc1C(=O)/N=c1\n(C)c2cc(C(N)=O)ccc2n1CCCCCn1/c(=N/C(=O)c2cc(C)nn2CC)n(C)c2cc(C(N)=O)ccc21 [Example 24]
THP-1 antagonist assay (pIC50): 4.6
